Results: patent US6699682B2, “Assay for inhibitors of fatty-acid amide hydrolase” (The Scripps Research Institute, priority 1995, dated 2004)
Read-outs that look alike come from different tables or passages of the source. Where a SMILES comes first, the peptide text is derived from it. [ ]: non-standard residue; d: D form. The star is where a group is joined. Sta = CC(C)C[C@H](N)[C@@H](O)CC(=O)O; Isovaleryl = CC(C)CC(=O)*

What was measured:
[1] = molecular target: T1, recombinant expressed rat FAAH (Rattus norvegicus, UniProt P97612); assay: FAAH hydrolysis assays with 14C-labeled fatty acid amide substrates (TLC, scintillation counting); type: biochemical; conditions: for Rate of Hydrolysis: 35 μg transfected COS-7 cell protein, 5 minutes, 37° C.
T1 construct: expressed in transfected cells; host or cells: COS-7 cells, transient, pcDNA3; dounce-homogenised cell extract
T1 sequence (P97612 1-579): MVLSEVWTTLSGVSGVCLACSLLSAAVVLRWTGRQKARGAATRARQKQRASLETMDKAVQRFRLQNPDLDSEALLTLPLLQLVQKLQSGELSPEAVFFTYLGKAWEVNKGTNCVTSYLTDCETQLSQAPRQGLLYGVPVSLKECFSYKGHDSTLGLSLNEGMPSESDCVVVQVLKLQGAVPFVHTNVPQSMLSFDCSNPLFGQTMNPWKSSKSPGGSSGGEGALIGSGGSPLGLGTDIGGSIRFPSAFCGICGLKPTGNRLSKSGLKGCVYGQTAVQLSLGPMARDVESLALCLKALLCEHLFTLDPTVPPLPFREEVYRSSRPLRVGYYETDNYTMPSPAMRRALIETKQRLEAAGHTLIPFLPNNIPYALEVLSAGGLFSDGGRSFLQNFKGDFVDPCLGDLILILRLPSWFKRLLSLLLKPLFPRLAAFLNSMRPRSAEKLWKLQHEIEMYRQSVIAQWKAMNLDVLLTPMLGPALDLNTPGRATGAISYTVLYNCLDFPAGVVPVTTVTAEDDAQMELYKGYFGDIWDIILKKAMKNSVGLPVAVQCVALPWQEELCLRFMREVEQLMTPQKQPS
Method: Therefore, COS-7 cells transfected with the rat FAAH cDNA were assayed for anandamide hydrolase activity. To assess the enzymatic activity of the expressed recombinant fatty acid amide hydrolases of this invention on labeled anandamide, the following enzymatic assay was performed. ^14C-anandamide was synthesized as follows: 12.5 μCi (specific activity of 50 μCi/μM) of ^14C arachidonic acid (Moravek Biochemicals) was dissolved in 100 μl CH2Cl2, cooled to 0° C., and treated with excess oxalyl chloride. The reaction mixture was stirred at 25° C. for 6 hours, after which time the solvent was evaporated. The remaining residue was cooled to 0° C., treated with a large excess of ethanolamine, and stirred at 25° C. for 15 minutes. The reaction mixture was then partitioned between ethyl acetate and 2 M HCl, and the organic layer was washed with water and then evaporated to dryness. The resulting ^14C-anandamide was diluted with unlabeled anandamide to a final specific activity of 5 μCi/μM in ethanol. Approximately 1 μCi of ^14C-anandamide and 20 μl of dounce homogenized COS-7 cell extract were used for each anandamide hydrolase assay as detailed above for the oleamide hydrolase assays. Briefly, FAAH hydrolysis assays were conducted in triplicate with 100 μM substrate, 35 μg of rat transfected COS-7 cell protein for 5 minutes at 37° C. (except in the case of stearic amide, where due to low solubility, 20 μM substrate comparison to oleamide were conducted). Products were separated on TLC as described previously, scraped into scintillation fluid, and radioactivity was quantitated by scintillation counting. Substrate hydrolysis in the presence of equal amounts of untransfected COS-7 cell protein extract served as background control in all cases and was substracted from FAAH hydrolysis rates to give the data as presented below.
To further assess the substrate specificity spectrum of enyzmatic hydolytic activity of the recombinant expressed proteins of this invention, other ^14C-labeled fatty acid amides were synthesized as described in Section B6 and above for ^14C-oleamide, with the exception of anandamide as described.
Where indicated in the table the anandamide and oleamide hydrolysis rates are considered to be 100% of FAAH activity to which other fatty acid amide hydrolysis rates are compared.

recombinant rat FAAH = molecular target: T2, recombinant rat FAAH (Rattus norvegicus, UniProt P97612); assay: oleamide hydrolase activity of rat FAAH-transfected COS-7 cell extract and its inhibition (TLC); type: biochemical; conditions: versus untransfected and control transfected cells
T2 construct: expressed in transfected cells; host or cells: COS-7 cells, transient, pcDNA3; dounce-homogenised cell extract
T2 sequence (P97612 1-579): T1 sequence (P97612 1-579)
Method: The following thin layer chromatography (TLC) protocol is used for assaying cis-9,10 octadecenoamide hydrolysis activity, also referred to as fatty-acid amide hydrolase activity. Oleamide is first labeled with ^14C. To accomplish this, ^14C-Oleic acid (1-10 μM, Moravek Biochemicals, 5-50 μCi/μM) in CH2CL2 (200 μL, 0.005-0.05 M) at 0° C. was treated with excess oxalyl chloride and the reaction mixture was warmed to 25° C. for 6 hours. The reaction mixture was then concentrated under a constant stream of gaseous nitrogen and the remaining residue was cooled to 0° C. and treated with excess saturated aqueous ammonium hydroxide. After 5 minutes, the reaction mixture was partitioned between Et)Ac (1.5 mL) and 10% HCl (1.0 mL). The organic layer was then washed with water (1.0 mL) and concentrated under a constant stream of gaseous nitrogen to provide ^14C-oleamide in quantitative yield as judged by TLC (60% EtOAc in hexanes; oleamide Rf−0.2; oleic acid Rf−0.8). […]
While untransfected COS-7 cells contained negligible amounts of oleamide hydrolase activity, COS-7 cells transfected with the rat FAAH cDNA expressed high levels of oleamide hydrolase activity (FIG. 15A). The assay was performed as described in Section B where by TLC the conversion of oleamide to oleic acid was assessed. […]

rats = assay: effect on spontaneous behavior of rats after ip injection (induction of sleep); type: in vivo, rat; conditions: for sleep-inducing pharmacological effect compared with cis-9,10-octadecenoamide: rats, ip
Method: Synthetic cis-9,10-octadecenoamide was injected (ip) into rats in order to test its effect on spontaneous behavior at different doses: 1 (n=2), 2 (n=2), 5 (n=7), 10 (n=10), 20 (n=2), and 50 (n=2) mg, where n = number of rats tested. […] However, at a threshold of 5 mg and above there was a marked effect consisting of an induction of long-lasting motor quiescence associated with eyes closed, sedated behavior characteristic of normal sleep. Also as with normal sleep, the rats still responded to auditory stimuli with orienting reflex and sustained attention toward the source of stimulation. In addition, motor behavior was impaired. The latency to behavioral sedation following administration was about 4 minutes and subjects were normally active again after 1 hour (5 mg), 2 hour (10 mg), or 2.5 hour (20 mg and 50 mg).
We have compared cis-9,10-octadecenoamide to vehicle and the synthetic analogs listed in FIG. 1 to estimate the structural specificity of its sleep-inducing potential. […] More particularly, male Sprague-Dawley rats (300 g at the time of surgery) were implanted under halothane anesthesia (2-3%) with a standard set of electrodes for sleep recordings. This included two screw electrodes placed in the parietal bone over the hippocampus to record the subjects electroencephalogram (EEG) and two wire electrodes inserted in the neck musculature to record postural tone through electromyographic activity (EMG). Rats were housed individually with at libitum access to food and water. The dark-light cycle was controlled (12:12, lights on a 10:00 p.m.). One week after the surgery, rats were habituated to the recording conditions for at least three days. Upon the completion of the habituation period, rats received 2 milliliter (ip) of either: vehicle (5% ethanol/saline solution), cis-9,10-octadecenoamide (10 mg), or oleic acid (10 mg). […] Sleep recordings were visually scored and four stages were determined: wakefulness, slow-wave-sleep 1 (SWS1), slow-wave-sleep 2 (SWS2), and rapid eye movement (REM) sleep.

[2] = molecular target: T3, FAAH activity of a rat brain membrane fraction (Rattus norvegicus, UniProt P97612); type: biochemical; conditions: for inhibition of cis-9,10-octadecenoamide hydrolysis (lipid amidase) activity: 1 mM
T3 construct: Cis-9,10-octadecenoamide with rat brain membrane fraction +1 mM phenylmethylsulfonyl fluoride (PMSF); from tissue; host or cells: rat brain membrane fraction
T3 sequence (P97612 1-579): T1 sequence (P97612 1-579)
Method: In each case the enzymic reaction is performed is a separate reaction vessel and the product is spotted onto a TLC plate.

[3] = system: amidase activity which catalyzes both the hydrolysis and synthesis of arachidonylethanolamide (anandamide); conditions: cited from earlier work
neuroblastoma cells = conditions: anandamide incubated with neuroblastoma cells; cited from earlier work

Compound: CCCCC/C=C\C/C=C\C/C=C\C/C=C\CCCC(=O)NCCO [Anandamide, arachidonylethanolamide]
- % of FAAH activity (anandamide hydrolysis rate = 100%) ([1]; 100 μM substrate): 100%
- Rate of Hydrolysis ([1]; 100 μM substrate): 333 ± 30 nmol/min/mg
- conversion of labeled substrate by rat FAAH-transfected COS-7 cells (qualitative, TLC) (recombinant rat FAAH): high levels of anandamide hydrolase activity

Compound: CCCCCCCCC/C=C\CCCCCCC(N)=O [Compound 3, Cis-8,9-octadecenoamide]
- sleep-inducing pharmacological effect compared with cis-9,10-octadecenoamide (rats): substantial reduction in both the degree and duration of the pharmacological effects

Compound: CCCCCC/C=C\CCCCCCCCCC(N)=O [Compound 4, Cis-11,12-octadecenoamide]
- sleep-inducing pharmacological effect compared with cis-9,10-octadecenoamide (rats): substantial reduction in both the degree and duration of the pharmacological effects

Compound: CCCCCCCC/C=C\CCCCCCCCCCCC(N)=O [Compound 6, Erucamide]
- sleep-inducing pharmacological effect compared with cis-9,10-octadecenoamide (rats): substantial reduction in both the degree and duration of the pharmacological effects

Compound: [Cl][Hg][Cl] [HgCl2, mercuric chloride]
- inhibition of lipid amidase activity ([2]; 50 mM): inhibited

Compound: CCCCCCCCCCCCCC(N)=O [Myristic Amide, myristic amide]
- % of FAAH activity (anandamide hydrolysis rate = 100%) ([1]; 100 μM substrate): 24.3%
- Rate of Hydrolysis ([1]; 100 μM substrate): 81 ± 7 nmol/min/mg

Compound: O=S(=O)(F)Cc1ccccc1 [PMSF, phenylmethylsulfonyl fluoride]
- inhibition of cis-9,10-octadecenoamide hydrolysis (lipid amidase) activity [2]: inhibited
- inhibition of cis-9,10-octadecenoamide hydrolysis (lipid amidase) activity ([2]; listed as phenylmethylsulfonyl fluoride): completely inhibited
- inhibition of the amidase activity ([3]; 1.5 mM concentration): completely inhibited

Compound: CCCCCCCCCCCCCCCC(N)=O [Palmitic Amide, palmitic amide]
- % of FAAH activity (anandamide hydrolysis rate = 100%) ([1]; 100 μM substrate): 9.9%
- Rate of Hydrolysis ([1]; 100 μM substrate): 33 ± 2 nmol/min/mg

Compound: CCCCCCCCCCCCCCCCCC(N)=O [Stearic Amide, stearic amide]
- % of FAAH activity (oleamide hydrolysis rate = 100%) ([1]; 20 μM substrate): 5.8%
- Rate of Hydrolysis ([1]; 20 μM substrate): 2.3 ± 1 nmol/min/mg

Compound: CCCCCCCC/C=C/CCCCCCCC(N)=O [Trans-9,10-octadecenoamide]
- duration of the biological (sleep-inducing) effect (rats; 10 mg per rat): one hour
- sleep-inducing pharmacological effect compared with cis-9,10-octadecenoamide (rats): much less potent

Compound: N=C(N)c1ccccc1 [benzamidine]
- effect of other inhibitors on the amidase activity [3]: little or no effect

Compound: CC(C)C[C@H](NC(=O)[C@@H](NC(=O)N[C@@H](Cc1ccccc1)C(=O)O)[C@@H]1CCN=C(N)N1)C(=O)N[C@H](C=O)Cc1ccccc1 [chymostatin]
- effect of other inhibitors on the amidase activity [3]: little or no effect

Compound: CC(=O)N[C@@H](CC(C)C)C(=O)N[C@@H](CC(C)C)C(=O)N[C@H](C=O)CCCNC(=N)N [leupeptin]
- effect of other inhibitors on the amidase activity [3]: little or no effect

Compound: CCCCCCCC/C=C\CCCCCCCC(=O)O [oleic acid, Oleic Acid]
- sleep-inducing pharmacological effect compared with cis-9,10-octadecenoamide (rats): nor oleic acid (5) showed any overt behavioral effect

Compound: CC(C)CC(=O)N[C@H](C(=O)N[C@H](C(=O)N[C@@H](CC(C)C)[C@@H](O)CC(=O)N[C@@H](C)C(=O)N[C@@H](CC(C)C)[C@@H](O)CC(=O)O)C(C)C)C(C)C [pepstatin] (Isovaleryl-VV[Sta]A[Sta]-OH)
- effect of other inhibitors on the amidase activity [3]: little or no effect

Compound: aprotinin
- effect of other inhibitors on the amidase activity [3]: little or no effect

Compound: arachidonyl trifluoromethyl ketone
- increase of anandamide levels in the presence of the inhibitor (neuroblastoma cells): 5 fold
